Data set [1] has as its system P. berghei ANKA GFP. Put plainly: Adjunctive/adjuvant therapy with artesunate after onset of ECM. The data set is classed as in vivo, C57BL/6 mice. The note with it: for parasitemia: AS alone 40 mg/Kg/day i.p. d5-d6. The protocol:
Thus, the inventors decided to test Compound 1 as an adjunctive and adjuvant therapy during the acute phase of ECM. […] Therefore, the inventors assessed the combination of Compound 1 and AS on parasite clearance and clinical recovery from ECM. Two AS and Compound 1 combinations were tested: (i) Adjunctive therapy: AS and Compound 1 were administered concomitantly for 2 days after the onset of CM followed by a 3-day treatment with Compound 1 alone, or (ii) Adjuvant therapy: AS was administered on the first 2 days after CM onset followed by Compound 1 administration for 3 more days.
(§1) In order to evaluate the clinical presentation of experimental cerebral malaria, a classification was used in clinical stages from 0 to 4 (see, e.g., Bienvenu et al., Acta Trop (2008) 106:104-8; Franklin et al., Proc Natl Acad Sci USA (2011) 108:3689-94). Briefly, stage 0 indicates no detectable clinical symptoms, stage 1, ruffled fur; stage 2, ruffled fur and unbalancing; stage 3, limb paralysis and respiratory distress and stage 4, convulsions, coma or death. The mice were clinically classified before and after the treatment to evaluate the clinical recovery.
(§2) CORM-2 (Sigma-Aldrich) and Compound 2 were solubilized using 10% dimethyl sulfoxide (DMSO; Sigma-Aldrich) in PBS. CORM-3 and Compound 1 were solubilized in PBS (lx). CORM-2 solution (20 mg/kg of body weight) was administered intravenously (i.v.) according to the chosen schedules. […] As vehicle control, we used a solution of 10% DMSO in PBS administered i.v. The concentrations of CORM-2 used in the present study were based on previous reports (see, e.g., Chen et al. Am. J. Pathol. (2009) 175:422-429; Sun et al., World. J. Gastroenterol. (2008) 14:547-553). Artesunate is presented as a powder of artesunic acid. Artesunate (AS) solution was prepared by dissolving 60 mg of anhydrous artesunic acid in 1 ml of sodium bicarbonate (5%) to form sodium artesunate and then diluted in 5 ml of NaCl (0.9%). An AS solution (i.p.) was administered at 40 mg/Kg/day, as described previously (see, e.g., Bienvenu, Acta Trop (2008) 106:104-108). The AS treatment was started when the infected non-treated mice presented the clinical stage 1 for experimental cerebral malaria.

The conditions of data set [2]: cited from earlier work.
Data set [3] has as its system P. berghei ANKA GFP. The data set is classed as in vivo, C57BL/6 mice. The note with it: for hyperparasitemia in protected mice (infected red blood cells): 3 weeks after infection; for effect on parasitemia: treated twice daily days 2-3, observed from about day 5 to day 8 of infection. Here is the method: It has previously been shown that administration of CO by inhalation protects P. berghei ANKA infected C57BL/6 mice from developing ECM (see, e.g., Pamplona et al. Nat Med (2007) 13:703-710). The inventors questioned whether CO-RMs could mimic the protection conferred by CO inhalation in P. berghei ANKA infection. To this end, a known ruthenium CORM, Ru(CO)3Cl2, also referred to herein as CORM-2, was tested on different schedules of treatment and doses in P. berghei ANKA infected C57BL/6 mice (data not shown).
Red blood cells infected with green fluorescent protein (GFP)-transgenic P. berghei ANKA and P. berghei ANKA was used to infect mice (see, e.g., Franke-Fayard et al. Mol Biochem Parasitol (2004) 137:23-33). Cryopreserved parasites were passed once through C57BL/6 or DBA-2 mice before being used to infect experimental animals. C57BL/6 or DBA-2, 6- to 8-wk-old mice (sex matched in each experiment) were infected by intra-peritoneal (i.p.) injection of 10^6 infected RBCs. The infected mice were monitored daily for clinical symptoms of experimental cerebral malaria (ECM) including hemi- or paraplegia, head deviation, tendency to roll over on stimulation, ataxia and convulsions, or ALI, including dyspnea. Mice showing severe signs of ECM at day 5, 6 or 7 post-infection (p.i.) and ALI between days 7 and 9 were sacrificed. Parasitemia was assessed by flow cytometry for mice infected with GFP-expressing P. berghei ANKA, using tail blood, as previously described (see, e.g., Pamplona et al., Nat Med (2007) 13:703-710). Mean parasitemia is expressed as percentage of infected red blood cells. For mice infected with non-GFP P. berghei parasitemia was assessed daily by microscopic counting of Giemsa-stained thin blood smears. Mean parasitemia is expressed as percentage of infected red blood cells. Survival is expressed as percentage.
as §1, §2

In another data set the target is T1, Hen Egg White Lysozyme C (Gallus gallus, UniProt P00698).
T1 construct: one corresponding to the mass of native lysozyme (14305=calculated mass); from tissue; host or cells: hen egg white
Put plainly: Hen egg white lysozyme (HEWL) assay, reactivity with proteins by LC-MS. The data set is classed as binding. Particulars: 10 equiv in H2O, room temperature, 10 minutes and 1 hour. An excerpt: The hen egg white lysozyme (HEWL) assay was used to assess the reactivity of Compound 1 in the presence of proteins (see, e.g., Santos-Silva, T. et al. J Am Chem Soc (2011) 133, 1192-1195). This paper describes the interactions of CORM-3 with plasma proteins. CORM-3 reacts rapidily with proteins, losing chloride ion, glycinate, and one CO ligand. […] It was observed that CORM-3 reacts faster and has a much weaker efficacy than Compound 1 in this ECM treatment.
Liquid chromatography-mass spectrometry (LC-MS) was performed on a Micromass Quattro API instrument (ESI-TOF-MS) coupled to a Waters Alliance 2795 HPLC using a MassPREP On-Line Desalting Cartridge. […]
Hen Egg White Lysozyme C (PDB code 3b61; UniProtKB/Swiss-Prot code P00698). […] Quantitative determination of lysozyme-ligand binding in the solution and gas phases by electrospray ionisation mass spectrometry follows Veros et al., Rapid Commun. […] A 50 μL aliquot was analyzed by LC-MS (calculated average isotopic mass of the egg white lysozyme=14305.1).
Santos-Silva and co-workers previously describe CORM-3's reactivity towards proteins and formation of a Ru(II) dicarbonyl-lysozyme complex (see, e.g., Santos-Silva et al., J. Am. Chem. Soc. (2011) 133:1192-1195). […] 50 μL aliquots were collected and analyzed by LC-MS over the reaction time (10 minutes and 1 hour). […]

Data set [4] relates to P. berghei ANKA. Put plainly: In vitro replication of P. berghei ANKA. The data set is classed as cell-based, Plasmodium berghei. Particulars: 24 h. The protocol:
(§3) The data led the inventors to wonder whether Compound 1 could have a direct anti-parasitic effect on P. berghei ANKA and P. falciparum parasites. To this end, the effect of Compound 1 and the anti-malarial chloroquine (CQ) was monitored on the in vitro replication of P. falciparum 3D7 isolate and P. berghei ANKA for 48 h and 24 h, respectively.

Data set [5] relates to P. berghei ANKA. Put plainly: Malaria-associated acute lung injury (M-AALI) model. The data set is classed as in vivo, DBA/2 mice. The note with it: i.v. twice daily.
Text: The M-AALI model, based on the infection of DBA-2 mice with P. berghei ANKA, is characterized by dyspnea, airway obstruction, hypoxemia, pulmonary exudate and elevated VEGF levels in plasma, followed by death between days 7 and 12 after infection.
Red blood cells infected with green fluorescent protein (GFP)-transgenic P. berghei ANKA and P. berghei ANKA was used to infect mice (see, e.g., Franke-Fayard et al. Mol Biochem Parasitol (2004) 137:23-33). Cryopreserved parasites were passed once through C57BL/6 or DBA-2 mice before being used to infect experimental animals. […] The infected mice were monitored daily for clinical symptoms of experimental cerebral malaria (ECM) including hemi- or paraplegia, head deviation, tendency to roll over on stimulation, ataxia and convulsions, or ALI, including dyspnea. […] Parasitemia was assessed by flow cytometry for mice infected with GFP-expressing P. berghei ANKA, using tail blood, as previously described (see, e.g., Pamplona et al., Nat Med (2007) 13:703-710). Mean parasitemia is expressed as percentage of infected red blood cells. For mice infected with non-GFP P. berghei parasitemia was assessed daily by microscopic counting of Giemsa-stained thin blood smears. Mean parasitemia is expressed as percentage of infected red blood cells. Survival is expressed as percentage. […]
A further data set relates to P. falciparum 3D7. Put plainly: In vitro replication of P. falciparum 3D7. In kind it is cell-based, Plasmodium falciparum. The note with it: 48 h. The protocol:
as §3

The nature of data set [6]: Brain histology (hematoxylin and eosin) in ECM. The data set is classed as in vivo, C57BL/6 mice. Particulars: P. berghei ANKA-infected mice. The protocol:
For evaluation of histological features, mice were deeply anesthetized until cessation of breathing when infected control mice presented signs of ECM or ALI. The livers, lungs, and brains were removed and fixed in 10% buffered formalin for 24-72 h. Four-micron sections were cut from paraffin-embedded tissues and stained with hematoxylin and eosin according to standard procedures. Histological analyses were performed on a Leica microscope DM 2500 (Leica Microsystems).

A short description of data set [7]: Quantification of Ru in tissues (bio-distribution). The note with it: non-infected mice, i.v. Here is the method: Tricarbonyldichloro(methylthiogalactopyranoside) Ru(II) [Ru(CO)3Cl2(Gal-S-Me)], also referred to herein as Compound 1, was prepared by reacting CORM-2 with methylthiogalactopyranoside (Gal-S-Me) as described herein (see FIG. 2a and Materials and Methods section). The bio-distribution of Compound 1 in tissues was assessed by quantifying the levels of Ru and CO in the host by the method of Vreman et al., Anal Biochem (2005) 341:280-9. Liver, kidney, spleen, lung and brain tissues of non-infected mice (NI) were analyzed one hour after administration of Compound 1 and the control molecule, Compound 2 (FIG. 2b). […] The spleen is an organ that plays a crucial role in erythrophagocytosis, process important for red blood cell turnover, and recycling of iron. Erythrocytes are hydrolyzed by splenic macrophages, where the degradation of hemoglobin occurs, haem is release, and is catabolized by heme oxygenase-1 into biliverdin, carbon monoxide and ferrous iron (Fe^2+).
The tissue samples were weighed and dried at 80° C. overnight followed by 2 or more hours at 120° C. […] The Ru content was analyzed by an inductively coupled plasma-atomic emission spectrometer (ICP-AES) (model Ultima-Horiba Jobin Yvon, Longjumeau, France) using an external Ru standard method.

T1 sequence (P00698 19-147): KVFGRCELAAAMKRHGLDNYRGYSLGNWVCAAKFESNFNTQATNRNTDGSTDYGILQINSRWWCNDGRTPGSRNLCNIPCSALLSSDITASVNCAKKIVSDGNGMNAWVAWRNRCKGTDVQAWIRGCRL

`C[C@H]1[C@H](OC(=O)CCC(=O)O)O[C@@H]2O[C@@]3(C)CC[C@H]4[C@H](C)CC[C@@H]1[C@@]24OO3` [AS, Artesunate]: the parasitemia in the data set with P. berghei ANKA GFP [1] (day 5 post-infection) came to 6.8±0.3%. In the data set with P. berghei ANKA GFP [1] (day 9 post-infection), the parasitemia is reported as 0.59±0.06%. In the data set on P. berghei ANKA GFP [1] (AS alone d5-d6), the “mice that died with ECM” value was found to be 82% and the survival turned out to be 18%.

As for `[C-]#[O+].[C-]#[O+].[C-]#[O+].[C-]#[O+].[C-]#[O+].[C-]#[O+].[Cl][Ru][Cl].[Cl][Ru][Cl]` [CORM-2, tricarbonyldichlororuthenium(II) dimer], the “COHb levels in blood after in vivo administration” value in data set [2] is reported as “do not elevate the carboxyhemoglobin (COHb) levels”. Besides, in the data set with P. berghei ANKA GFP [3], the “hyperparasitemia in protected mice (infected red blood cells)” value was > 30 % infected red blood cells and the effect on parasitemia entry was “statistically significant delay in parasitemia”. Also, the “death or symptoms of ECM” value in the data set on P. berghei ANKA GFP [3] (CORM-2 20 mg/kg i.v. twice daily between days 2 and 3 after infection) was “prevented death or symptoms of ECM in all infected C57BL/6 mice”.

Turning to `NCC(=O)O.[C-]#[O+].[C-]#[O+].[C-]#[O+].[Cl][Ru]` [CORM-3, fac-Ru(CO)3C1(glycinate)], the “COHb levels in blood after in vivo administration” value in data set [2] is “do not elevate the carboxyhemoglobin (COHb) levels”. In the data set with P. berghei ANKA GFP [3], the “hyperparasitemia in protected mice (infected red blood cells)” value is > 50 % infected red blood cells and the effect on parasitemia result is “statistically significant delay in parasitemia”. In the data set on P. berghei ANKA GFP [3] (i.v. twice daily between days 2 and 3 after infection, equimolar to CORM-2 20 mg/kg), the “mice protected from ECM” value is on record as 50%. Moreover, the “reactivity with HEWL (adduct formation)” value on Hen Egg White Lysozyme C is listed as “reacts faster”.

As to `CS(C)=O.CS(C)=O.CS(C)=O.CS(C)=O.[Cl][Ru][Cl]` [Compound 2, Tetrakis(dimethylsulfoxide)dichlororuthenium(II), reference compound], the “inhibition of in vitro growth” value in the data set with P. berghei ANKA [4] and with P. falciparum 3D7 was “absence of inhibitory effect” in each case. The “mice that died displaying M-AALI symptoms” value with P. berghei ANKA [5] came to 67%. For the same compound, the “neuropathologic features in brain sections” value in data set [6] is “evidence of microvascular congestion with pRBC and leukocytes and hemorrhagic foci”.

Take “Tricarbonyldichloro(methylthiogalactopyranoside) Ru(II) [Compound 1]”: the “amount of Ru retained in the liver after the last injection, of the Ru administered in all doses” value in data set [7] is recorded as “about 13.7±0.6%”.

The values above are taken from patent US9611286B2, “Ruthenium carbon monoxide releasing molecules and uses thereof” (Alfama, Inc., priority 2011, dated 2017).
